Laboratory results reported in patent publication US7741020B2, “Methods for detecting Lp-PLA2 activity and inhibition of Lp-PLA2 activity” (Glaxo Group Limited, priority 2004, dated 2010).
“And” between values parts separate entries of the source, which are not always exact repeats. Equal entries are not always repeated.

How the values were obtained:
Lp-PLA2 [1] = target: T1, Lp-PLA2 (Homo sapiens, UniProt Q13093); assay: Modified drug-sensitive colorimetric assay, plasma; type: biochemical; settings: 120 mg, plasma of individual human subjects
T1 sequence (Q13093 22-441): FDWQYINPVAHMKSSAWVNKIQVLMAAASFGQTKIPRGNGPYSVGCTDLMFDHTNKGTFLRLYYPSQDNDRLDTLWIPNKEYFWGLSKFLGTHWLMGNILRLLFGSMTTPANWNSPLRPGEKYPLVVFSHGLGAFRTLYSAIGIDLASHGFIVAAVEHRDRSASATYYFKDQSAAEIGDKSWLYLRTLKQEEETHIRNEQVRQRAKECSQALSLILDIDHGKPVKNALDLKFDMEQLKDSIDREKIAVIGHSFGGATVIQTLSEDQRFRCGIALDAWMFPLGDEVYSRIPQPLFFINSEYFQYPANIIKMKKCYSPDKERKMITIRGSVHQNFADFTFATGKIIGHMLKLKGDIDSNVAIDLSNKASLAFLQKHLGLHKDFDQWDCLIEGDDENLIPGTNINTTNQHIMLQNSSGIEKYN
Source text: Assay Procedure • 1. […] Use duplicates for each sample. • 4.
Pre-dose plasma samples for each subject on day 0 of the study were also available.

Lp-PLA2 [2] = target: T1, Lp-PLA2; assay: Auto PAF AH assay (Azwell kit, Olympus Au640 analyzer); type: biochemical; settings: plasma of individual human subjects
Method: The Auto PAF AH assay kit, manufactured by Azwell (Osaka, Japan), is commercially available in the United States through Karlan Research Products Corporation (Santa Rosa, Calif.).
Prepare the following reagents: • R1: Use this buffer solution as supplied in Azwell Auto PAF AH assay kit. Store at 4° C. Protect from light. • R2: Prepare the R2 working solution by mixing R2A and R2B (supplied in Azwell Auto PAF AH assay kit) in the proportion of 19:1, Store at 4° C. Protect from light. • 3. […] Briefly centrifuge to spin down fibrin clots/particles in the plasma. • 4. Place Sarstedt tubes containing plasma samples onto sample tubes that fit the instrument. Run plasma samples through the Au640 analyzer. After choosing the PAF AH assay program, the analytical procedure described below is performed automatically: • Test sample (2 μL)+R1 (240 μL), 37° C., 5 minutes [0-5 minutes] • Add R2 (80 μL), 37° C., 5 minutes [5-10 minutes] • Measure the absorbance at 410 nm and 480 nm [6-8 minutes] • Calculate PAF AH activity (IU/L) • 5.

## COCCN1CCC(N(Cc2ccc(-c3ccc(C(F)(F)F)cc3)cc2)C(=O)Cn2c(SCc3cccc(F)c3F)cc(=O)c3ccccc32)CC1 [Formula I]
Lp-PLA2 [1]; 2 hr after dosing
  Lp-PLA2 Activity Drug-Sensitive Colorimetric: 19.69 nmol/min/mL and 19.54 nmol/min/mL and 12.22 nmol/min/mL and 29.51 nmol/min/mL and 10.11 nmol/min/mL
Lp-PLA2 [1]; 3 hr after dosing
  Lp-PLA2 Activity Drug-Sensitive Colorimetric: 13.17 nmol/min/mL and 20.61 nmol/min/mL and 15.08 nmol/min/mL and 30.49 nmol/min/mL and 11.51 nmol/min/mL
Lp-PLA2 [1]; 4 hr after dosing
  Lp-PLA2 Activity Drug-Sensitive Colorimetric: 7.30 nmol/min/mL and 21.27 nmol/min/mL and 16.18 nmol/min/mL and 29.42 nmol/min/mL and 11.21 nmol/min/mL
Lp-PLA2 [1]; 5 hr after dosing
  Lp-PLA2 Activity Drug-Sensitive Colorimetric: 22.94 nmol/min/mL and 21.36 nmol/min/mL and 18.14 nmol/min/mL and 35.46 nmol/min/mL and 12.22 nmol/min/mL
Lp-PLA2 [1]; 6 hr after dosing
  Lp-PLA2 Activity Drug-Sensitive Colorimetric: 20.65 nmol/min/mL and 21.39 nmol/min/mL and 18.74 nmol/min/mL and 39.29 nmol/min/mL and 17.01 nmol/min/mL
Lp-PLA2 [1]; 9 hr after dosing
  Lp-PLA2 Activity Drug-Sensitive Colorimetric: 27.16 nmol/min/mL and 27.87 nmol/min/mL and 26.18 nmol/min/mL and 50.81 nmol/min/mL and 21.03 nmol/min/mL
Lp-PLA2 [2]; 50 mg, 0.5 hr after dosing
  % Inhibition Auto PAF AH: 10.84% and 0.65% and −6.65% and 10.66% and 8.03%
  Lp-PLA2 Activity Auto PAF AH: 456.50 nmol/min/mL and 308.00 nmol/min/mL and 393.00 nmol/min/mL and 272.50 nmol/min/mL and 647.00 nmol/min/mL
Lp-PLA2 [2]; 50 mg, 1 hr after dosing
  % Inhibition Auto PAF AH: 11.15% and 14.00% and 19.04%
  Lp-PLA2 Activity Auto PAF AH: 271.00 nmol/min/mL and 605.00 nmol/min/mL and 242.00 nmol/min/mL and 340.50 nmol/min/mL
Lp-PLA2 [2]; 50 mg, 2 hr after dosing
  % Inhibition Auto PAF AH: 10.98% and 20.47% and 9.03%
  Lp-PLA2 Activity Auto PAF AH: 271.50 nmol/min/mL and 559.50 nmol/min/mL and 282.00 nmol/min/mL and 348.00 nmol/min/mL
Lp-PLA2 [2]; 50 mg, 3 hr after dosing
  Lp-PLA2 Activity Auto PAF AH: 277.50 nmol/min/mL and 602.50 nmol/min/mL and 435.00 nmol/min/mL and 287.50 nmol/min/mL and 348.00 nmol/min/mL
Lp-PLA2 [2]; 50 mg, 4 hr after dosing
  % Inhibition Auto PAF AH: 15.90% and 10.52% and 0.32% and 8.14%
  Lp-PLA2 Activity Auto PAF AH: 256.50 nmol/min/mL and 629.50 nmol/min/mL and 409.00 nmol/min/mL and 309.00 nmol/min/mL and 338.50 nmol/min/mL
Lp-PLA2 [2]; 50 mg, 5 hr after dosing
  % Inhibition Auto PAF AH: 10.33% and 7.39% and 24.80% and 9.84% and 8.68%
  Lp-PLA2 Activity Auto PAF AH: 273.50 nmol/min/mL and 651.50 nmol/min/mL and 385.00 nmol/min/mL and 279.50 nmol/min/mL and 336.50 nmol/min/mL
Lp-PLA2 [2]; 50 mg, 6 hr after dosing
  % Inhibition Auto PAF AH: 10.33% and 8.74% and 24.12% and 11.80%
  Lp-PLA2 Activity Auto PAF AH: 273.50 nmol/min/mL and 642.00 nmol/min/mL and 388.50 nmol/min/mL and 306.50 nmol/min/mL and 325.00 nmol/min/mL
Lp-PLA2 [2]; 50 mg, 9 hr after dosing
  % Inhibition Auto PAF AH: 6.23% and 18.76% and 12.99% and 6.61% and 15.33%
Lp-PLA2 [2]; 50 mg, 12 hr after dosing
  % Inhibition Auto PAF AH: 14.26% and 18.76% and −8.39%
  Lp-PLA2 Activity Auto PAF AH: 261.50 nmol/min/mL and 409.50 nmol/min/mL and 336.00 nmol/min/mL and 307.00 nmol/min/mL
Lp-PLA2 [2]; 120 mg, 0.5 hr after dosing
  % Inhibition Auto PAF AH: 15.42% and 8.74% and 9.58% and 6.66%
Lp-PLA2 [2]; 120 mg, 1 hr after dosing
  % Inhibition Auto PAF AH: 11.34% and 7.73%
Lp-PLA2 [2]; 120 mg, 2 hr after dosing
  % Inhibition Auto PAF AH: 18.04% and 21.33% and 8.63% and 18.61% and 21.05%
Lp-PLA2 [2]; 120 mg, 3 hr after dosing
  % Inhibition Auto PAF AH: 12.42% and 16.24% and 5.90% and 14.65%
Lp-PLA2 [2]; 120 mg, 5 hr after dosing
  % Inhibition Auto PAF AH: −1.63% and 5.62%
  Lp-PLA2 Activity Auto PAF AH: 353.50 nmol/min/mL and 748.00 nmol/min/mL and 416.00 nmol/min/mL and 428.50 nmol/min/mL and 377.00 nmol/min/mL
Lp-PLA2 [2]; 120 mg, 6 hr after dosing
  % Inhibition Auto PAF AH: 13.73% and 2.99% and 6.47%
  Lp-PLA2 Activity Auto PAF AH: 330.00 nmol/min/mL and 714.00 nmol/min/mL and 412.00 nmol/min/mL and 393.00 nmol/min/mL and 366.00 nmol/min/mL
Lp-PLA2 [2]; 120 mg, 9 hr after dosing
  % Inhibition Auto PAF AH: 11.63%
Lp-PLA2 [2]; 120 mg, 12 hr after dosing
  % Inhibition Auto PAF AH: 7.06% and −3.52%
